Source: patent publication US20240148707A1, “MODULATION OF DRUG-DRUG INTERACTIONS OF VADADUSTAT” (Akebia Therapeutics, Inc., priority 2021, published 2024)
Where two headings read alike, the source gives them in different places.

What was measured:
[1] = Phase III clinical trial in patients with hemodialysis anemia; assay type: in vivo, human
Description: The incidence of adverse reactions when this drug was administered up to 24 weeks was 8.3% (2/24 cases).

[2] = Plasma pharmacokinetics, repeated once-daily administration to healthy adult men; assay type: in vivo, human; conditions: first day of administration
CYP2C9 = CYP2C9 (Homo sapiens, UniProt P11712); experiment: Enzyme inhibition (in vitro); assay type: in vitro ADME
Chain of CYP2C9 (P11712 whole entry): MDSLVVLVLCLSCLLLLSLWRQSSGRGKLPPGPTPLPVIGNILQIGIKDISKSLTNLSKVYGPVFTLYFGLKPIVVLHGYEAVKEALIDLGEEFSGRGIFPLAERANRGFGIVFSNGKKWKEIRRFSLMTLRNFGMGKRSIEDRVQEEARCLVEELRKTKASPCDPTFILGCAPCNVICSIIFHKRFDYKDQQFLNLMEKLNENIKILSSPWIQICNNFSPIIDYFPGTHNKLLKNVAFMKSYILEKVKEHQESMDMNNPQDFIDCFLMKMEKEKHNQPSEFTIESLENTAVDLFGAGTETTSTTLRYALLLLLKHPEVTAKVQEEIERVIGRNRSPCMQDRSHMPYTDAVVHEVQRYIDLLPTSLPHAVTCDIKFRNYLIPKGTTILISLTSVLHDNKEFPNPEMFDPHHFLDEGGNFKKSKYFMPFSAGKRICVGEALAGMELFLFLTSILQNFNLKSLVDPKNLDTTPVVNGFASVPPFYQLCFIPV

normal rat = experiment: Blood erythropoietin concentration increasing action; assay type: in vivo; conditions: single oral administration
[3] = [14C]-labeled Compound 1 metabolism and excretion study in healthy adult males; assay type: in vivo, human
Source text: The urinary excretion rate of this drug and acyl glucuronide is less than 1% of the total radioactivity.

CYP2B6 = target: T1, CYP2B6 (Homo sapiens, UniProt P20813); experiment: Enzyme inhibition (in vitro); assay type: in vitro ADME
T1 sequence (P20813 1-491): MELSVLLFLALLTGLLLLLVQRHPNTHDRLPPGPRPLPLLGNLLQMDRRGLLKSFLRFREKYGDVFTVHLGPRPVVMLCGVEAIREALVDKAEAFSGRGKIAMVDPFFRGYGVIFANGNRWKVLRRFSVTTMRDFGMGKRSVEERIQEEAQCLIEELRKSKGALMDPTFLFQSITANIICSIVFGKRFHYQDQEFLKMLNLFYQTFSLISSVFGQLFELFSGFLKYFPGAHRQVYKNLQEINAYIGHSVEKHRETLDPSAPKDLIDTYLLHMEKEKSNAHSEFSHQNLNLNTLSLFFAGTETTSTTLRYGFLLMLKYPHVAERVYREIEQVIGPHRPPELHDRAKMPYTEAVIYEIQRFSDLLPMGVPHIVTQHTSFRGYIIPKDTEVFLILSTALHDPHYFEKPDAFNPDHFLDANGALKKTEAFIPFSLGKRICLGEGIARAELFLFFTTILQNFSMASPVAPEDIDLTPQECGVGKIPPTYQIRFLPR

CYP2C8 = target: T2, CYP2C8 (Homo sapiens, UniProt P10632); experiment: Enzyme inhibition (in vitro); assay type: in vitro ADME
T2 sequence (P10632 1-490): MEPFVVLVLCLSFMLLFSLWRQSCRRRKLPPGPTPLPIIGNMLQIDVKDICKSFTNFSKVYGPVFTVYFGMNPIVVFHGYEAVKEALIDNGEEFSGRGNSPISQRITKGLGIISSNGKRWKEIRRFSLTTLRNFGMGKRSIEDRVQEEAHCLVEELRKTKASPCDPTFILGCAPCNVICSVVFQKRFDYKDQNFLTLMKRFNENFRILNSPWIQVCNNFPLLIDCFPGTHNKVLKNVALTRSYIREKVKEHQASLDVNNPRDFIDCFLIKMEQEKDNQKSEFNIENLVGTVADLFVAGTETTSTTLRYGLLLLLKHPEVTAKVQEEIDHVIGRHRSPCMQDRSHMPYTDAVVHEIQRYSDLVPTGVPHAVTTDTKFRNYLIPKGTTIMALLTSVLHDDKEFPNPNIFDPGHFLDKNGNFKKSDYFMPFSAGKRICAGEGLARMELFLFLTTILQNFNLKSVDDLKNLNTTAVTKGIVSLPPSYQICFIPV

normal rats = experiment: Hemoglobin concentration and red blood cell count after repeated dosing; assay type: in vivo, rat; conditions: repeated oral administration for 14 days
[4] = Phase I drug-drug interaction study with cyclosporine (Part 1, Arm 1); assay type: in vivo, human; conditions: for AUC(0-inf) / AUC(0-t) / Cmax: both sexes, human, plasma, fasted
Description: A phase I, open-label, 2-part study was conducted in healthy male and female subjects to evaluate the potential for interaction of cyclosporine (Part 1, Arm 1), probenecid (Part 1, Arm 2), and rifampin (Part 2) with vadadustat.
Subjects were randomized in a 1:1 ratio to 1 of 2 dosing sequences (A:B or B:A) to receive vadadustat 300 mg alone and vadadustat 300 mg in combination with oral cyclosporine 500 mg in a crossover design. Study drugs were administered in the morning after at least a 10-hour overnight fast. Subjects remained fasted for at least 4 hours post-dose. • Treatment A: a single oral dose of vadadustat (300 mg) administered as 2×150 mg tablets. • Treatment B: a single oral dose of vadadustat (300 mg) administered as 2×150 mg tablets co-administered with a single oral dose of cyclosporine (500 mg) administered as 5×100 mg capsules.
On the morning of Day 1, subjects received the first treatment (A or B). Following a 7-day washout, subjects crossed over to Period 2 to receive the second treatment of the dosing sequence (A or B) on Day 8.
On each dosing day (Day 1 and Day 8) blood samples for PK analysis were collected up to 48 hours post-dose. Subjects were discharged from the clinical research unit (CRU) on the morning of Day 10, after the final 48-hour post-dose PK sample had been collected. A follow-up phone call was conducted 30 days±2 days after the final dose.

- Tmax ([2]; 300 mg once a day): 1.95 h
- t1/2 ([2]; 300 mg once a day): 6.14 ± 0.763 h
- Tmax ([2]; 600 mg once a day): 1.98 h
- inhibitory effect on CYP2C9 (CYP2C9): inhibitory effect
- share of the total radioactivity (AUC0-∞) in plasma ([3]; healthy adult male (6), single oral 650 mg [14C]-labeled Compound 1): 75%
- total radioactivity administered recovered in urine ([3]; single dose 650 mg [14C]-labeled, by 72 hours after administration): 58.9%
- inhibitory effect on CYP2B6 (CYP2B6): inhibitory effect
- inhibitory effect on CYP2C8 (CYP2C8): inhibitory effect
- AUC(0-inf) ([4]; vadadustat 300 mg + cyclosporine 500 mg, single oral doses, read-out: AUCinf, geometric LSM, Treatment V + C): 293 µg·h/mL
- AUC(0-t) ([4]; vadadustat 300 mg + cyclosporine 500 mg, single oral doses, read-out: AUClast, geometric LSM, Treatment V + C): 292 µg·h/mL
- Cmax ([4]; vadadustat 300 mg + cyclosporine 500 mg, single oral doses, read-out: Cmax, geometric LSM, Treatment V + C): 37100 ng/mL
- AUC(0-inf) ([4]; vadadustat 300 mg alone, single oral dose, read-out: AUCinf, geometric LSM, Treatment V): 251 µg·h/mL
- AUC(0-t) ([4]; vadadustat 300 mg alone, single oral dose, read-out: AUClast, geometric LSM, Treatment V): 249 µg·h/mL
- Cmax ([4]; vadadustat 300 mg alone, single oral dose, read-out: Cmax, geometric LSM, Treatment V): 45400 ng/mL
- changes in the Cmax and AUC values ([4]; vadadustat in combination with cyclosporine): no clinically relevant changes
SMILES: O=C(O)CNC(=O)c1ncc(-c2cccc(Cl)c2)cc1O [Compound 1, {[5-(3-chlorophenyl)-3-hydroxypyridine-2-carbonyl]amino}acetic acid]
- incidence of adverse reactions ([1]; administered up to 24 weeks (2/24 cases)): 8.3%
- hemoglobin level before administration ([1]; baseline, 23 people, mean ± standard deviation): 9.30 ± 0.67
- blood erythropoietin levels (normal rat): elevated blood erythropoietin levels
- hemoglobin concentration (normal rats): increasing
- red blood cell count (normal rats): increasing
- tolerability ([4]; during treatment with cyclosporine, healthy subjects): tolerated
